Consider 22 compounds from US20040048790A1, “Inducing cellular immune responses to p53 using peptide and nucleic acid compositions” (priority 1999, published 2004).

For one experiment, the target named is B*5401 (Homo sapiens, UniProt P01889, A329T/C349S/D138N/D201E/E176V/E187T/E204Q/E69G/I76V/K202T/L119W/R155S/R180L/S121T/S35A/S48A/V127L/V306I/V36M/Y140L). Put plainly: biochemical.
A further experiment has as its target B*5301 (Homo sapiens, UniProt P01889, A329T/A93T/A95T/C349S/D201E/D98Y/E176V/E187L/E204Q/E69T/G107R/I218V/K202T/L105A/L119I/N104I/Q94N/R106L/R155S/R180L/S101N/S121R/S35A/S48A/T118I/V127L/V306I/V36M/Y140S/Y91F). Put plainly: biochemical.
The target in the next experiment is HLA-B*0702 (Homo sapiens, UniProt P01889). Put plainly: biochemical.
The next experiment deals with B*3501 (Homo sapiens, UniProt P01889, A329T/A93T/A95T/C349S/D201E/D98Y/E176V/E187L/E204Q/E69T/I218V/K202T/L119I/Q94N/R155S/R180L/S121R/S35A/S48A/T118I/V127L/V306I/V36M/Y140S/Y91F). Put plainly: biochemical.
Another experiment has as its target DRB1*0301 (DR3) (Homo sapiens, UniProt P01903+P01911, A100K/A102G/A103R/A169T/F55Y/I96L/K41T/L162R/M171V/P40S/Q125H/Q178H/Q39Y/R42S/S66N/T106N/T262R/W38E/Y61H). In kind it is binding.

As a reminder, the IC50 is the point on the concentration scale where inhibition reaches its midpoint. Read a low IC50 as inhibition by little substance.

No end group written: not given here.

Chain of DRB1*0301 (DR3) (P01903 26-254 limits assumed, other chains not shown): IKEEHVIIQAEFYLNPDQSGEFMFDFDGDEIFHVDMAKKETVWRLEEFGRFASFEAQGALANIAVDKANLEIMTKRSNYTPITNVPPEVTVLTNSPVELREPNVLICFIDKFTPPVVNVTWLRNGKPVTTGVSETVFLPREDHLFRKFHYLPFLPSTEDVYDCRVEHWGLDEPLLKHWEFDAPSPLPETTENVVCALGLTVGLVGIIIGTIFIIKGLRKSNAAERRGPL

Regarding `CC[C@H](C)[C@H](NC(=O)[C@@H](NC(=O)[C@@H](NC(=O)[C@@H](NC(=O)[C@@H](NC(=O)[C@H](CC(C)C)NC(=O)[C@@H](NC(=O)[C@@H]1CCCN1C(=O)[C@@H](N)Cc1ccccc1)[C@@H](C)CC)[C@@H](C)O)[C@@H](C)CC)[C@@H](C)CC)[C@@H](C)O)C(=O)O` [p53.249.F119], the half-inhibitory concentration (IC50) against B*5401 worked out at 1.8 nM; against B*5301 it was 4 nM; on HLA-B*0702, 74 nM; against B*3501 it was 36 nM.
In turn, `CC[C@H](C)[C@H](NC(=O)[C@H](CCC(N)=O)NC(=O)[C@H](CC(C)C)NC(=O)[C@@H](NC(=O)[C@H](Cc1ccccc1)NC(=O)[C@H](Cc1ccc(O)cc1)NC(=O)[C@H](CCC(=O)O)NC(=O)CN)[C@@H](C)O)C(=O)N[C@@H](CCCNC(=N)N)C(=O)NCC(=O)N[C@@H](CCCNC(=N)N)C(=O)N[C@@H](CCC(=O)O)C(=O)N[C@@H](CCCNC(=N)N)C(=O)N[C@@H](Cc1ccccc1)C(=O)N[C@@H](CCC(=O)O)C(=O)O` displayed an IC50 against DRB1*0301 (DR3) above 10000 nM.
`CC[C@H](C)[C@H](NC(=O)[C@@H]1CCCN1C(=O)[C@H](Cc1c[nH]c2ccccc12)NC(=O)[C@H](CO)NC(=O)[C@@H]1CCCN1C(=O)[C@H](C)NC(=O)[C@@H]1CCCN1C(=O)[C@H](C)NC(=O)[C@@H]1CCCN1C(=O)[C@@H](N)Cc1ccccc1)C(=O)O` [p53.84.F1110]: the figures for the half-maximal inhibitory concentration (IC50) against B*5401, at B*5301 and on HLA-B*0702 were 1.2 nM, 42 nM and 13 nM, respectively.
Take `CC(C)C[C@H](NC(=O)[C@@H]1CCCN1C(=O)[C@H](Cc1c[nH]c2ccccc12)NC(=O)[C@H](CO)NC(=O)[C@@H]1CCCN1C(=O)[C@H](C)NC(=O)[C@@H]1CCCN1C(=O)[C@H](C)NC(=O)[C@@H]1CCCN1C(=O)[C@@H](N)Cc1ccccc1)C(=O)O` [p53.84.F1]: the IC50 against B*5401 was found to be 1.7 nM; against B*3501 it was 5.1 nM.
For the compound `CC(C)C[C@H](NC(=O)[C@H](CCCCN)NC(=O)[C@H](Cc1c[nH]c2ccccc12)NC(=O)[C@H](CC(C)C)NC(=O)[C@H](CC(=O)O)NC(=O)[C@H](CO)NC(=O)[C@H](Cc1ccccc1)NC(=O)[C@@H](NC(=O)[C@H](CCC(=O)O)NC(=O)[C@H](CCC(N)=O)NC(=O)[C@H](CO)NC(=O)[C@H](CC(C)C)NC(=O)[C@@H]1CCCN1C(=O)[C@@H]1CCCN1C(=O)[C@@H](N)CCC(=O)O)[C@@H](C)O)C(=O)O`, the half-maximal inhibitory concentration (IC50) at DRB1*0301 (DR3) was above 10000 nM.
Regarding `CC[C@H](C)[C@H](NC(=O)[C@H](C)NC(=O)[C@H](CCC(N)=O)NC(=O)[C@H](CO)NC(=O)[C@@H]1CCCN1C(=O)[C@H](CC(C)C)NC(=O)[C@@H]1CCCN1C(=O)[C@@H](N)Cc1ccccc1)C(=O)O` [p53.33.F1], the results for the IC50 on B*5401 and at B*3501 were 83 nM and 720 nM, respectively.
Turning to `CC[C@H](C)[C@H](NC(=O)[C@H](CC(=O)O)NC(=O)[C@H](CC(=O)O)NC(=O)[C@@H]1CCCN1C(=O)[C@H](CO)NC(=O)[C@H](CC(C)C)NC(=O)[C@H](CCSC)NC(=O)[C@H](CC(C)C)NC(=O)[C@@H](N)CC(=O)O)C(=O)N[C@@H](CCC(=O)O)C(=O)N[C@@H](CCC(N)=O)C(=O)N[C@@H](Cc1c[nH]c2ccccc12)C(=O)N[C@@H](Cc1ccccc1)C(=O)N[C@H](C(=O)N[C@@H](CCC(=O)O)C(=O)O)[C@@H](C)O`, the IC50 on DRB1*0301 (DR3) is above 10000 nM.
On the same count and under the same terms, with `CC[C@H](C)[C@H](NC(=O)[C@@H](NC(=O)[C@@H](N)CC(C)C)[C@@H](C)O)C(=O)N[C@H](C(=O)N[C@H](C(=O)N[C@@H](CC(C)C)C(=O)N[C@@H](CCC(=O)O)C(=O)N[C@@H](CC(=O)O)C(=O)N[C@@H](CO)C(=O)N[C@@H](CO)C(=O)NCC(=O)N[C@@H](CC(N)=O)C(=O)N[C@@H](CC(C)C)C(=O)N[C@@H](CC(C)C)C(=O)NCC(=O)O)[C@@H](C)O)[C@@H](C)CC` the figure was above 10000 nM.
In the case of `CC[C@H](C)[C@H](NC(=O)[C@@H]1CCCN1C(=O)[C@@H](NC(=O)[C@@H]1CCCN1C(=O)[C@H](C)NC(=O)[C@H](C)NC(=O)[C@@H]1CCCN1C(=O)[C@H](C)NC(=O)[C@@H]1CCCN1C(=O)[C@@H](N)Cc1ccccc1)[C@@H](C)O)C(=O)O` [p53.74.F1110], the IC50 is 5.3 nM against B*5401, 127 nM on B*5301, 1.5 nM on HLA-B*0702 and 277 nM at B*3501.
For `CC[C@H](C)[C@H](NC(=O)[C@H](C)NC(=O)[C@@H](N)CCSC)C(=O)N[C@@H](Cc1ccc(O)cc1)C(=O)N[C@@H](CCCCN)C(=O)N[C@@H](CCC(N)=O)C(=O)N[C@@H](CO)C(=O)N[C@@H](CCC(N)=O)C(=O)N[C@@H](Cc1c[nH]cn1)C(=O)N[C@@H](CCSC)C(=O)N[C@H](C(=O)N[C@@H](CCC(=O)O)C(=O)N[C@H](C(=O)N[C@H](C(=O)N[C@@H](CCCNC(=N)N)C(=O)O)C(C)C)C(C)C)[C@@H](C)O`, the IC50 against DRB1*0301 (DR3) was above 10000 nM.
FPILTIITL [p53.249.F1]: the IC50 against B*5401 amounted to 5 nM; at B*5301, 7.2 nM; against HLA-B*0702, 6.5 nM; on B*3501, 8 nM.
With `CC[C@H](C)[C@H](NC(=O)[C@@H]1CCCN1C(=O)[C@H](C)NC(=O)[C@H](C)NC(=O)[C@@H]1CCCN1C(=O)[C@@H](NC(=O)[C@@H]1CCCN1C(=O)[C@@H](N)Cc1ccccc1)[C@@H](C)O)C(=O)O` [p53.79.F118], the IC50 on B*5401 was 7.7 nM; on B*5301, 6200 nM; against HLA-B*0702 it was 90 nM; against B*3501 it was 5140 nM.
Take `CC[C@H](C)[C@H](NC(=O)[C@@H]1CCCN1C(=O)[C@H](C)NC(=O)[C@H](C)NC(=O)[C@@H]1CCCN1C(=O)[C@@H](NC(=O)[C@@H]1CCCN1C(=O)[C@H](C)NC(=O)[C@H](C)NC(=O)[C@@H]1CCCN1C(=O)[C@@H](N)Cc1ccccc1)[C@@H](C)O)C(=O)O` [p53.76.F1111]: the IC50 against B*5401 was determined as 15 nM; on B*5301, 3210 nM.
As to `CC(C)C[C@H](NC(=O)[C@@H]1CCCN1C(=O)[C@H](Cc1c[nH]c2ccccc12)NC(=O)[C@H](CO)NC(=O)[C@@H]1CCCN1C(=O)[C@@H](N)Cc1ccccc1)C(=O)N[C@@H](CO)C(=O)N[C@@H](CO)C(=O)N[C@@H](CO)C(=O)N[C@H](C(=O)O)C(C)C` [p53.88.F1], the IC50 is 0.3 nM against B*5401, 93 nM against B*5301, 3.2 nM against HLA-B*0702 and 72 nM against B*3501.
In the case of FPAPSWPI [p53.86.F118], the IC50 against B*5401 worked out at 1.6 nM; against B*5301, 3.3 nM; on HLA-B*0702, 120 nM; against B*3501, 4.8 nM.
The matching figures for `CC[C@H](C)[C@H](NC(=O)[C@H](CO)NC(=O)[C@H](CO)NC(=O)[C@H](CO)NC(=O)[C@H](CC(C)C)NC(=O)[C@@H]1CCCN1C(=O)[C@H](Cc1c[nH]c2ccccc12)NC(=O)[C@H](CO)NC(=O)[C@@H]1CCCN1C(=O)[C@@H](N)Cc1ccccc1)C(=O)O` [p53.88.F1110]: 2.4 nM, 8.5 nM, 5.5 nM and 100 nM.
Consider `CC[C@H](C)[C@H](NC(=O)[C@H](C)NC(=O)[C@@H]1CCCN1C(=O)[C@H](C)NC(=O)[C@@H]1CCCN1C(=O)[C@H](C)NC(=O)[C@@H](NC(=O)[C@@H]1CCCN1C(=O)[C@@H]1CCCN1C(=O)[C@@H](N)Cc1ccccc1)C(C)C)C(=O)O` [p53.70.F1110], for which the IC50 came out at 63 nM against B*5401, 2910 nM on B*5301 and 290 nM on HLA-B*0702.
With `CC[C@H](C)[C@H](NC(=O)[C@@H]1CCCN1C(=O)[C@@H](NC(=O)[C@@H]1CCCN1C(=O)[C@H](C)NC(=O)[C@H](C)NC(=O)[C@@H]1CCCN1C(=O)[C@@H](N)Cc1ccccc1)[C@@H](C)O)C(=O)O` [p53.76.F118], the results for the IC50 against B*5401, against HLA-B*0702 and at B*3501 were 3.1 nM, 128 nM and 655 nM, respectively.
As to `CC[C@H](C)[C@H](NC(=O)[C@@H]1CCCN1C(=O)[C@@H]1CCCN1C(=O)[C@H](C)NC(=O)[C@H](C)NC(=O)[C@H](CCC(=O)O)NC(=O)[C@@H]1CCCN1C(=O)[C@H](CCSC)NC(=O)[C@H](CCCNC(=N)N)NC(=O)[C@@H]1CCCN1C(=O)[C@@H](N)Cc1ccccc1)C(=O)O` [p53.63.F1111], the IC50 against B*5401 came out at 2.9 nM; at B*5301, 5470 nM; against B*3501, 5540 nM.
In the case of `CC(C)C[C@H](NC(=O)[C@@H]1CCCN1C(=O)[C@H](Cc1c[nH]c2ccccc12)NC(=O)[C@H](CO)NC(=O)[C@@H]1CCCN1C(=O)[C@H](C)NC(=O)[C@@H]1CCCN1C(=O)[C@@H](N)Cc1ccccc1)C(=O)O` [p53.86.F1], the half-inhibitory concentration (IC50) against B*5401 was determined as 9.1 nM; against B*5301, 4 nM; on HLA-B*0702, 10 nM; against B*3501, 3.1 nM.
In the case of FPAAPTPAI [p53.76.F119], the IC50 turned out to be 2.5 nM on B*5401, 7.2 nM against B*5301, 2.6 nM at HLA-B*0702 and 12 nM against B*3501.
On to `CC[C@H](C)[C@H](NC(=O)[C@H](CO)NC(=O)[C@@H]1CCCN1C(=O)[C@H](C)NC(=O)[C@@H]1CCCN1C(=O)[C@H](C)NC(=O)[C@@H]1CCCN1C(=O)[C@@H](N)Cc1ccccc1)C(=O)O` [p53.84.F118], for which the IC50 was 6.7 nM on B*5401, 131 nM on B*5301 and 327 nM at B*3501.
